Values quoted from earlier work, collected in patent US11554108B2, “Methods and compositions for treating cutaneous fungal infections” (Xeropedix, Inc., priority 2016, dated 2023).
Values after ≈ are worked out from the molar mass of the structure shown. Where two headings read alike, the source gives them in different places.

Experiments:
[1] = target: transient receptor potential vanilloid 1 (TRPV1) cation channel (Homo sapiens, UniProt Q8NER1); conditions: lowered from approximately 42° C.
[2] = not given; remark: listed apart in the source

Sequence of transient receptor potential vanilloid 1 (TRPV1) cation channel (Q8NER1 whole entry): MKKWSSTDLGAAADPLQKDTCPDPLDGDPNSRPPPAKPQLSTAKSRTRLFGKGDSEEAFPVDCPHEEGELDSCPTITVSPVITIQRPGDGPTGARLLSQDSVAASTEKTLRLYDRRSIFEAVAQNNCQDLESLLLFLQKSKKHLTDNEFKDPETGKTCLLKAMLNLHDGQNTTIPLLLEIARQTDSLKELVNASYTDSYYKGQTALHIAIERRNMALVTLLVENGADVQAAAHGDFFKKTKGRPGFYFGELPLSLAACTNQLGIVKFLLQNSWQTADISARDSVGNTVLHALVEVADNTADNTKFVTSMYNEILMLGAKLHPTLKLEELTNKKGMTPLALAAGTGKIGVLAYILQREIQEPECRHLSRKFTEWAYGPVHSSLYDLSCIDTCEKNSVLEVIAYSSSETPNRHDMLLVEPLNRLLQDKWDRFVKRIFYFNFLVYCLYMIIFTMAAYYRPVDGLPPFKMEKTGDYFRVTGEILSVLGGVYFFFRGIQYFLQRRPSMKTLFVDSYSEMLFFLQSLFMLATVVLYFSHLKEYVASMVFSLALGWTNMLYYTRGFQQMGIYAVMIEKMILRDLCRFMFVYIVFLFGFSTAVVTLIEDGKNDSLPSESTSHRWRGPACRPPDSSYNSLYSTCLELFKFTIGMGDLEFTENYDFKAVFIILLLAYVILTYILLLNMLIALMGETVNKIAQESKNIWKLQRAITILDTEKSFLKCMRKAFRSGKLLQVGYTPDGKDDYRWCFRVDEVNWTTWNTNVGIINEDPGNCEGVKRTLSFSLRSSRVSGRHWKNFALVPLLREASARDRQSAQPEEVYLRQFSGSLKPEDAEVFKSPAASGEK

Compound: CCO [Ethanol]
- threshold temperature at which TRPV1 signals excessive heat [1]: 34 °C

Compound: [Cl][Al]([Cl])[Cl] [aluminum chloride]
- inhibition of T. mentagrophytes in an in vitro MIC test (T. mentagrophytes; 10% aluminum chloride, equal to 100,000 μg/ml): no inhibition
- inhibition of T. mentagrophytes in an in vitro MIC test (T. mentagrophytes; 20% aluminum chloride, equal to 200,000 μg/ml): inhibited the fungus
- reduction of unpleasant symptoms of tinea pedis (tinea pedis; 30% aluminum chloride solution): effective at reducing unpleasant symptoms
- resolution of the infection (tinea pedis; 30% aluminum chloride solution): did not resolve the infection entirely

Compound: aluminum chlorohydrate
- effectiveness against tinea pedis relative to aluminum chloride (tinea pedis; in vivo): less effective than aluminum chloride

Compound: CN(C/C=C/C#CC(C)(C)C)Cc1cccc2ccccc12 [terbinafine]
- minimum fungicidal concentration against T. rubrum (T. rubrum): 3 ng/mL (≈ 0.0103 µM)
- stratum corneum concentration (24 hours after a single application of 1% terbinafine cream): 37 ng/cm^2
- concentration of terbinafine in the stratum corneum (24 hours after application of 1% terbinafine cream, converted with 1 ng/cm^2=4 μg/ml): approximately 148 μg/ml
- rate of absorption, maximum concentration, and half-life in the skin ([2]; ethanol gel compared to a standard cream formulation): improve
- percutaneous terbinafine absorption ([2]; in vivo, ethanol solution compared to isopropyl myristate solution): enhanced
